The subject of this assay is eIF2-GTP-Met-tRNAi ternary complex. Description: Ternary complex assay (dual luciferase, firefly/renilla ratio) in stable KLN-tTA/pBISA-DL(ATF-4) cells; HTS and hit confirmation. The arrangement: Activity 10 uM / Activity 2.5 uM / Activity 5 uM: unit not given here. The class given is cell-based, mouse. Conditions: confirmed hits of the screen (Table 5); for Activity 2.5 uM: compound at 2.5 uM; for Activity 10 uM: compound at 10 uM; for Activity 5 uM: compound at 5 uM.

SMILES strings stand for the structures.

For `CC(=O)Oc1ccc(N(CCCl)CCCl)cc1OC(C)=O` [Compound 130216], the “Activity 2.5 uM” value is given as 0.51 and the “Activity 10 uM” value worked out at 4.77. The matching figures for `CCCCCc1[nH]nc(C(=O)OC)c1N=NN1CCOCC1` [Compound 131237]: 0.87 and 3.3. As to `c1ccc(-c2ccc3c4ccccc4ccn23)cc1` [Compound 131464], the “Activity 2.5 uM” value was determined as 3.63 and the “Activity 10 uM” value was 3.99.

Regarding `CC[Si](CC)(CC)[Si](c1ccccc1)(c1ccccc1)c1ccccc1` [Compound 131584], the “Activity 2.5 uM” value amounted to 0.89 and the “Activity 10 uM” value is recorded as 7.95. In the same order, the values of `N=C(N)c1cn(C2OC(CO)C(O)C2O)c2ncnc(N)c12` (stereo not shown) [Compound 131663] are 7 and 8.18. Turning to `COc1ccc(Cc2cncc3c(O)c(OC)ccc23)cc1O` [Compound 131747], the “Activity 2.5 uM” value came to 2.54 and the “Activity 10 uM” value was 3.25. Take `CCCCCCCCCCCCOC(=O)c1cc(O)c(O)c(O)c1` [Compound 133463]: the “Activity 5 uM” value was found to be 8.8 and the “Activity 10 uM” value is listed as 4.63. Consider `Nc1c(Br)cc2c([nH]c(=O)c3cc(Cl)ccc32)c1Br` [Compound 134404], for which the “Activity 2.5 uM” value came out at 5.44 and the “Activity 10 uM” value is given as 12.72.

For `Cl.Clc1ccc(C2NC(c3ccc(Cl)cc3)NC(c3ccc(Cl)cc3)N2)cc1` (stereo not shown) [Compound 135155], the “Activity 2.5 uM” value amounted to 0.94 and the “Activity 10 uM” value is 7.19. Take `O=S(=O)(c1ccccc1)N1CC2CC(Br)C(Br)CC21` (stereo not shown) [Compound 135331]: the “Activity 5 uM” value is on record as 15.388 and the “Activity 10 uM” value is 31.606. In the same order, the values of `C(C[P+](c1ccccc1)(c1ccccc1)c1ccccc1)=C(c1ccccc1)c1ccccc1` [Compound 135741] are 8.605 and 7.226. The matching figures for `CN1N=C([P+](c2ccccc2)(c2ccccc2)c2ccccc2)CC1(c1ccccc1)c1ccccc1.[I-]` [Compound 135744]: 7 and 21.9. In the same order, the values of `CCOC(=O)CN1N=C([P+](c2ccccc2)(c2ccccc2)c2ccccc2)CC1(c1ccccc1)c1ccccc1.[Br-]` [Compound 135745] are 3.2 and 6.5. Take `O=[N+]([O-])c1ccccc1N/N=C\c1c[nH]c2ccccc12` [Compound 135854]: the “Activity 2.5 uM” value was determined as 3.56 and the “Activity 10 uM” value is given as 5.75. `COc1cccc2c1n([O-])c1cccc(=O)c-1[n+]2[O-].COc1cccc2c1n([O-])c1cccc(=O)c-1[n+]2[O-].[Cu+2]` [Compound 136768]: the “Activity 5 uM” value amounted to 4.668 and the “Activity 10 uM” value is recorded as 3.271. The matching figures for `CCCN(CCC)N=Nc1c(-c2ccccc2)n[nH]c1-c1ccccc1` [Compound 136886]: 2.5 and 28.5. The matching figures for `CCCCN(C)N=Nc1c(-c2ccccc2)n[nH]c1-c1ccccc1` [Compound 136889]: 3.9 and 16.7. Consider `CC(=O)Oc1c2c(c(CC=C(C)C)c3c1C(=O)C1=CC4CC5C(C)(C)OC(C/C=C(/C)C(=O)O)(C4=O)C15O3)OC(C)(CCC=C(C)C)C=C2` (stereo not shown) [Compound 139221], for which the “Activity 5 uM” value came out at 2.1 and the “Activity 10 uM” value worked out at 9. For the molecule `CCCCCCCCCCCCCCNC(=O)C[N+](C)(C)Cc1ccccc1.[Cl-]` [Compound 141112], the “Activity 2.5 uM” value is reported as 0.98 and the “Activity 10 uM” value was 3.76. The matching figures for `N#Cc1ncc(Cl)cc1[N+](=O)[O-]` [Compound 141226]: 1.05 and 3.5. In the same order, the values of `O=C(Cc1ccccc1)c1ccc2c3c(ccc([N+](=O)[O-])c13)CC2` [Compound 142606] are 16.57 and 34.1. As to `CO[C@H]1/C=C/O[C@@]2(C)Oc3c(C)c(O)c4c(O)c(c(/C=N/Nc5ccc([N+](=O)[O-])cc5[N+](=O)[O-])c(O)c4c3C2=O)NC(=O)/C(C)=C\C=C\[C@H](C)[C@H](O)[C@@H](C)[C@@H](O)[C@@H](C)[C@H](OC(C)=O)[C@@H]1C` [Compound 144126], the “Activity 5 uM” value was found to be 1.3 and the “Activity 10 uM” value was 7.3.

Regarding `Cl.S=C(N/N=C/c1ccccn1)N/N=C/c1ccccn1` [Compound 146007], the “Activity 5 uM” value came to 1.8 and the “Activity 10 uM” value was found to be 3.4. For `CC[N+](CC)=c1ccc2nc3c(cc(N)c4ccccc43)oc-2c1.[Cl-]` [Compound 146184], the “Activity 2.5 uM” value amounted to 3.13. For the molecule `c1ccc(N/N=C(/CC/C(=N\Nc2ccccc2)c2ccccc2)c2ccccc2)cc1` [Compound 146216], the “Activity 2.5 uM” value is given as 2.73 and the “Activity 10 uM” value amounted to 5.04. Consider `CC(C)(C)C[CH2][Hg][Cl]` [Compound 146249], for which the “Activity 2.5 uM” value stood at 3.04. On to `CCCCCCCCCCCc1n(Cc2ccccc2)c2ccccc2[n+]1C.[Br-]` [Compound 148342], for which the “Activity 5 uM” value worked out at 14.51 and the “Activity 10 uM” value is recorded as 19.7555.

As to `CCCCSC1=CC(=O)c2ccccc2C1=O` [Compound 149109], the “Activity 2.5 uM” value is reported as 18.18. On to `COc1cccc2c1C(=O)c1c(O)c3c(c(O)c1C2=O)C[C@@](O)(C(=O)COC(C)=O)C[C@@H]3OC1CC(N)C(O)C(C)O1.Cl` (stereo partly shown) [Compound 149581], for which the “Activity 5 uM” value stood at 3.5 and the “Activity 10 uM” value is 4.3. `OC(Br)C1C(c2ccccc2)N1C1CCCCC1` (stereo not shown) [Compound 150279]: the “Activity 2.5 uM” value was 0.62 and the “Activity 10 uM” value stood at 3.9.

With `Br.O=C(/C(=C\c1ccccc1)CN1CCOCC1)c1ccc(Br)cc1` [Compound 150311], the “Activity 5 uM” value is recorded as 36.67 and the “Activity 10 uM” value worked out at 39.7. In the same order, the values of `O=C(/C=C(\CN1CCCCC1)c1ccccc1)c1ccccc1` [Compound 150320] are 19.9 and 16.4. With `Cc1ccc2c(c1)SCc1c-2[nH]c2ccccc12` [Compound 150787], the “Activity 2.5 uM” value amounted to 2.94 and the “Activity 10 uM” value turned out to be 5.6. In the same order, the values of `CC(N)c1ccc(OCCOc2ccc(C(C)(C)CC(C)(C)C)cc2)cc1` (stereo not shown) [Compound 151117] are 0.85 and 12.07. Consider `CC(C)(C)CC(C)(C)c1ccc(OCCOc2ccc(C(=O)Nc3ccc([N+](=O)[O-])cc3)cc2)cc1` [Compound 151119], for which the “Activity 2.5 uM” value was found to be 0.72 and the “Activity 10 uM” value is 6.62.

As for `CCCCCC[N+](CCCCCC)(CCCCCC)CCCCCC.O=C([O-])c1ccccc1` [Compound 152111], the “Activity 5 uM” value amounted to 10.85 and the “Activity 10 uM” value came to 10.391. With `CCCCCCCCCCCCCCC[N+](C)(C)C.[Cl-]` [Compound 155015], the “Activity 2.5 uM” value turned out to be 2.19 and the “Activity 10 uM” value is 3.73.

For `CN(C)c1ccc(C(C[N+](=O)[O-])(c2ccc(N(C)C)cc2)c2ccc(N(C)C)cc2)cc1` [Compound 156572], the “Activity 5 uM” value came to 7.884 and the “Activity 10 uM” value is listed as 7.9345. Take `O=C(Nc1ccccc1O)/C(Cl)=C/Cl` [Compound 157236]: the “Activity 2.5 uM” value is given as 0.75 and the “Activity 10 uM” value was determined as 3.4. The matching figures for `CCOC(=O)c1[nH]c(-c2ccc(OC)cc2)c(C(=O)OCC)c1-c1ccccc1` [Compound 157306]: 1.77 and 3.94. Consider `c1ccc2c(c1)O[As](O[As]1Oc3ccccc3O1)O2` [Compound 157382], for which the “Activity 2.5 uM” value was determined as 0.68 and the “Activity 10 uM” value is 9.04.

With `Cc1cc(C)c(C(=O)Oc2ccc3ccccc3c2)c(C)c1` [Compound 157507], the “Activity 2.5 uM” value came to 2.07 and the “Activity 10 uM” value is recorded as 3.33. With `NNc1nc2ccc([N+](=O)[O-])cc2s1` [Compound 158091], the “Activity 2.5 uM” value is 1.66 and the “Activity 10 uM” value is recorded as 4.83. The matching figures for `O=C(Nc1ccc2ccccc2c1)c1ccc(Cl)cc1Cl` [Compound 158959]: 3.2 and 4.01. With `c1ccc2ncc(-c3ccc4ccccc4n3)cc2c1` [Compound 159209], the “Activity 5 uM” value is on record as 4.3 and the “Activity 10 uM” value turned out to be 8.5.

`CC1=C(Br)C(=O)C(c2c(C)cc(C)c(Br)c2C)=C(Br)C1=O` [Compound 159569]: the “Activity 5 uM” value is 3.21 and the “Activity 10 uM” value is reported as 5.804. Consider `CC(=O)Nc1cccc(/C=C/C=C/c2ccc([N+](=O)[O-])cc2)c1` [Compound 161089], for which the “Activity 2.5 uM” value is 1.67 and the “Activity 10 uM” value was found to be 3.53.

As to `CCCN(/C=C/C=C/C=[N+](CCC)CCC)CCC.[O-][Cl+3]([O-])([O-])[O-]` [Compound 161504], the “Activity 5 uM” value is 2.6 and the “Activity 10 uM” value turned out to be 5.3. Take `C=C1N(c2cc3ccccc3o2)C(=O)OC12CCCCC2` [Compound 162375]: the “Activity 2.5 uM” value came out at 1.7 and the “Activity 10 uM” value is recorded as 3.07.

In the case of `Cc1ccc2nc(-c3ccccc3N)[nH]c2c1` [Compound 163454], the “Activity 5 uM” value is on record as 2.2 and the “Activity 10 uM” value is listed as 3.5. `Cl.c1ccc2c(c1)Cn1c-2nc2ccccc21` [Compound 163482]: the “Activity 2.5 uM” value worked out at 1.588 and the “Activity 10 uM” value was determined as 3.207. On to `O=C1c2ccccc2-c2nc3cc4ccccc4cc3nc21` [Compound 163547], for which the “Activity 2.5 uM” value is reported as 3.27 and the “Activity 10 uM” value is on record as 4.38. `[Hg+][c]1ccccc1.[O-]B(O)O` [Compound 163948]: the “Activity 2.5 uM” value is on record as 5.67. `CCc1ccc(NC(=O)Nc2cccc(Cl)c2)cc1` [Compound 164212]: the “Activity 2.5 uM” value amounted to 2.04 and the “Activity 10 uM” value turned out to be 4.07. In the case of `Cc1cccnc1.Cc1cccnc1.Cc1cccnc1.Cc1cccnc1.[Cl-].[Cl][Rh-][Cl]` [Compound 165688], the “Activity 5 uM” value stood at 17.91 and the “Activity 10 uM” value worked out at 14.6965.

Values taken from patent US9932300B2, “N,N′-diarylurea compounds and N,N′-diarylthiourea compounds as inhibitors of translation initiation” (President and Fellows of Harvard College, priority 2009, dated 2018).
